In patent publication US20050250713A1, “11,12-Cyclic thiocarbamate macrolide antibacterial agents” (priority 2004, published 2005):
Values after ≈ are worked out from the molar mass of the structure shown.

Key:
Assay in all cases: MIC, microdilution broth method (NCCLS)
Format in all cases: cell-based
E. faecalis ATCC29212 = details: Enterococcus faecalis, cation adjusted Mueller-Hinton broth, 16-20 hours, read-out: MIC Values, B: E. faecalis ATCC29212
Procedure: (§1) Minimum inhibitory concentration (MIC) has been an indicator of in vitro antibacterial activity widely used in the art. The in vitro antimicrobial activity of the compounds was determined by the microdilution broth method following the test method from the National Committee for Clinical Laboratory Standards (NCCLS). This method is described in the NCCLS Document M7-A4, Vol. 17, No.2, “Methods for Dilution Antimicrobial Susceptibility Test for Bacteria that Grow Aerobically—Fourth Edition”, which is incorporated herein by reference. In this method two-fold serial dilutions of drug in cation adjusted Mueller-Hinton broth are added to wells in microdilution trays. The test organisms are prepared by adjusting the turbidity of actively growing broth cultures so that the final concentration of test organism after it is added to the wells is approximately 5×10^4 CFU/well. Following inoculation of the microdilution trays, the trays are incubated at 35 °C for 16-20 hours and then read. […] The amount of growth in the wells containing the test compound is compared with the amount of growth in the growth-control wells (no test compound) used in each tray. As set forth in Table 1, compounds of the present invention were tested against a variety of Gram positive and Gram negative pathogenic bacteria resulting in a range of activities depending on the organism tested.

H. influenzae ATCC49247 = details: Haemophilus influenzae, cation adjusted Mueller-Hinton broth, 16-20 hours, read-out: MIC Values, D: H. influenzae ATCC49247
Procedure: as §1

S. aureus ATCC29213 = details: Staphylococcus aureus, cation adjusted Mueller-Hinton broth, 16-20 hours
Procedure: as §1

S. pneumoniae ATCC49619 = details: Streptococcus pneumoniae, cation adjusted Mueller-Hinton broth, 16-20 hours, read-out: MIC Values, C: S. pneumoniae ATCC49619
Procedure: as §1

SMILES	MIC (E. faecalis ATCC29212)	MIC (H. influenzae ATCC49247)	MIC (S. aureus ATCC29213)	MIC (S. pneumoniae ATCC49619)
CC[C@H]1OC(=O)[C@H](C)C(=O)[C@H](C)[C@@H](O[C@@H]2O[C@H](C)C[C@H](N(C)C)[C@H]2O)[C@](C)(OC(=O)NC/C=C/c2ccc(-c3cccnn3)cc2)C[C@@H](C)C(=O)[C@H](C)[C@H]2NC(=S)O[C@@]21C [Compound 4]	0.25 µg/mL (≈ 0.293 µM)	2 µg/mL (≈ 2.35 µM)	0.5 µg/mL (≈ 0.587 µM)	0.12 µg/mL (≈ 0.141 µM)
CC[C@H]1OC(=O)[C@H](C)C(=O)[C@H](C)[C@@H](O[C@@H]2O[C@H](C)C[C@H](N(C)C)[C@H]2O)[C@](C)(OC(=O)NC/C=C/c2cnc3ccccc3c2)C[C@@H](C)C(=O)[C@H](C)[C@H]2NC(=S)O[C@@]21C [Compound 5]	0.06 µg/mL (≈ 0.0727 µM)	1 µg/mL (≈ 1.21 µM)	0.25 µg/mL (≈ 0.303 µM)	≤ 0.015 µg/mL
CC[C@H]1OC(=O)[C@H](C)C(=O)[C@H](C)[C@@H](O[C@@H]2O[C@H](C)C[C@H](N(C)C)[C@H]2O)[C@](C)(OC(=O)NC/C=C/c2ccc(Br)nc2)C[C@@H](C)C(=O)[C@H](C)[C@H]2NC(=S)O[C@@]21C [Compound 6]	0.06 µg/mL (≈ 0.0703 µM)	1 µg/mL (≈ 1.17 µM)	0.5 µg/mL (≈ 0.586 µM)	≤ 0.015 µg/mL
CC[C@H]1OC(=O)[C@H](C)C(=O)[C@H](C)[C@@H](O[C@@H]2O[C@H](C)C[C@H](N(C)C)[C@H]2O)[C@](C)(OC(=O)NC/C=C/c2cnc(C3CC3)nc2)C[C@@H](C)C(=O)[C@H](C)[C@H]2NC(=S)O[C@@]21C [Compound 7]	0.06 µg/mL (≈ 0.0735 µM)	1 µg/mL (≈ 1.23 µM)	0.5 µg/mL (≈ 0.613 µM)	≤ 0.015 µg/mL

More lines, in order of falling MIC (E. faecalis ATCC29212), values ahead:

MIC (E. faecalis ATCC29212)	MIC (H. influenzae ATCC49247)	MIC (S. aureus ATCC29213)	MIC (S. pneumoniae ATCC49619)	SMILES
0.12 µg/mL (≈ 0.14 µM)	2 µg/mL (≈ 2.34 µM)	0.25 µg/mL (≈ 0.292 µM)	≤ 0.015 µg/mL	CC[C@H]1OC(=O)[C@H](C)C(=O)[C@H](C)[C@@H](O[C@@H]2O[C@H](C)C[C@H](N(C)C)[C@H]2O)[C@](C)(OC(=O)OC/C=C/c2ccc(Br)nc2)C[C@@H](C)C(=O)[C@H](C)[C@H]2NC(=S)O[C@@]21C [Compound 10]
0.12 µg/mL (≈ 0.142 µM)	1 µg/mL (≈ 1.19 µM)	0.5 µg/mL (≈ 0.593 µM)	0.03 µg/mL (≈ 0.0356 µM)	CC[C@H]1OC(=O)[C@H](C)C(=O)[C@H](C)[C@@H](O[C@@H]2O[C@H](C)C[C@H](N(C)C)[C@H]2O)[C@](C)(OC(=O)NC/C(F)=C/c2cnc3ccccc3c2)C[C@@H](C)C(=O)[C@H](C)[C@H]2NC(=S)O[C@@]21C [Compound 12]
0.06 µg/mL (≈ 0.0726 µM)	2 µg/mL (≈ 2.42 µM)	0.12 µg/mL (≈ 0.145 µM)	–	CC[C@H]1OC(=O)[C@H](C)C(=O)[C@H](C)[C@@H](O[C@@H]2O[C@H](C)C[C@H](N(C)C)[C@H]2O)[C@](C)(OC(=O)OC/C=C/c2cnc3ccccc3c2)C[C@@H](C)C(=O)[C@H](C)[C@H]2NC(=S)O[C@@]21C [Compound 9]
